Source: paper PMC11684029, “Discovery of VU6024578/BI02982816: An mGlu1 Positive Allosteric Modulator with Efficacy in Preclinical Antipsychotic and Cognition Models” (Journal of Medicinal Chemistry, 2024)
Several values for one entry are separate records, joined by “and”; a condition that tells them apart may be missing. Identical values can stand only once. Like-named read-outs stand apart in the source and are kept apart here.

How the values were obtained:
[1] = plasma protein binding, equilibrium dialysis; assay type: in vitro ADME, human; conditions: fraction unbound
Method: (§1) The protein binding of each compound was determined in plasma via equilibrium dialysis employing RED Plates (ThermoFisher Scientific, Rochester, NY). Plasma was added to the 96 well plate containing test compound and mixed thoroughly for a final concentration of 5 μM. Subsequently, an aliquot of the plasma-compound mixture was transferred to the cis chamber (red) of the RED plate, with an phosphate buffer (25 mM, pH 7.4) in the trans chamber. The RED plate was sealed and incubated for 4 h at 37 °C with shaking. At completion, aliquots from each chamber were diluted 1:1 with either plasma (cis) or buffer (trans) and transferred to a new 96 well plate, at which time ice-cold acetonitrile containing internal standard (50 ng/mL carbamazepine) (2 volumes) was added to extract the matrices. The plate was centrifuged (3000 rcf, 10 min) and supernatants transferred and diluted 1:1 (supernatant: water) into a new 96 well plate, which was then sealed in preparation for LC/MS/MS analysis. Each compound was assayed in triplicate within the same 96-well plate. Fraction unbound was determined using the following equation [drawing 1]

3A4 = 3A4 (Homo sapiens, UniProt P08684); assay: 3A4 mechanism-based inhibition; assay type: in vitro ADME
3A4, sequence (P08684 whole entry): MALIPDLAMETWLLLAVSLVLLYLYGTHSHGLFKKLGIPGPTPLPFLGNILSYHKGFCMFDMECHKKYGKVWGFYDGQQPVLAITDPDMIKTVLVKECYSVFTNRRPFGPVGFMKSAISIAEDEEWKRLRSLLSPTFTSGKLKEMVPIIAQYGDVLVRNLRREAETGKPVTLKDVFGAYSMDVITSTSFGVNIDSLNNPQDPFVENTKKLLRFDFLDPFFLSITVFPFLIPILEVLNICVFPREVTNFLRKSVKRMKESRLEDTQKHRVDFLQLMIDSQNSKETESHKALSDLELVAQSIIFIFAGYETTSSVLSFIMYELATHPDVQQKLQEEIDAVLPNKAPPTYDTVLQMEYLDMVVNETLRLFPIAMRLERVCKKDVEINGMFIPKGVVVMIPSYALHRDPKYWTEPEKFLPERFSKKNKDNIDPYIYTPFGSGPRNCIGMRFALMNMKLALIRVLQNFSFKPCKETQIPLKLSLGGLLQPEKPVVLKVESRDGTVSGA

[2] = intrinsic clearance, predicted hepatic clearance; assay type: in vitro ADME, rat; conditions: in vitro predicted hepatic clearance
Method: Human or rat hepatic microsomes (0.5 mg/mL) and 1 μM test compound were incubated in 100 mM potassium phosphate pH 7.4 buffer with 3 mM MgCl2 at 37 °C with constant shaking. After a 5 min preincubation, the reaction was initiated by addition of NADPH (1 mM). At selected time intervals (0, 3, 7, 15, 25, and 45 min), aliquots were taken and subsequently placed into a 96-well plate containing cold acetonitrile with internal standard (50 ng/mL carbamazepine). Plates were then centrifuged at 3000 rcf (4 °C) for 10 min, and the supernatant was transferred to a separate 96-well plate and diluted 1:1 with water for LC/MS/MS analysis. The in vitro half-life (T1/2, min, eq 1), intrinsic clearance (CLint, mL/min/kg, eq 2) and subsequent predicted hepatic clearance (CLhep, mL/min/kg, eq 3) was determined employing the following equations: [drawing 2] 1 where k represents the slope from linear regression analysis of the natural log percent remaining of test compound as a function of incubation time [drawing 3] 2
^ascale-up factors: of 20 (human) or 45 (rat) [drawing 4] 3 where Qh (hepatic blood flow, mL/min/kg) is 21 (human) or 70 (rat).

[3] = plasma protein binding, equilibrium dialysis; assay type: in vitro ADME, rat; conditions: fraction unbound
Method: as §1

[4] = plasma exposure in satellite mice; assay type: in vivo; conditions: male, C57BL/6JRj, mouse, sc
Source text: We have also employed here event-related potentials (ERPs) and auditory-evoked oscillations, which serve as critical translational biomarkers, to assess the impact of our investigational drug on sensory processing and cognitive functions, providing valuable data on its potential efficacy in treating disorders like schizophrenia. Detailed description of the methodology, setup specifications and recording procedure and analysis of the 40 Hz auditory steady-state response (ASSR) protocol can be found in Schuelert et al.[27] […] Reduced entrainment of gamma oscillation reflects abnormalities in basic sensory registration and processing but is also associated with impaired higher cognitive functions.[32] ASSR can also be reliably impaired preclinically by different NMDA receptor antagonists.[33],[34] […] Abnormalities associated with the filtering or “gating” of sensory information are among the most consistent findings in schizophrenia research.[35] N100 gating deficits also correlated with negative-cognitive deficits dimensions of schizophrenia[36] and can be modeled preclinically with NMDA receptor antagonists.[37]19d reversed N1 sensory gating deficit induced by MK-801 with the highest dose of 10 mg/kg (Figure 12B). Mean plasma exposures in satellite mice after subcutaneous administration of 19d at 0.8, 4, and 10 mg/kg were 187, 1207, and 2490 nM, respectively.
Male C57BL/6JRj mice (12–14 weeks old, 28–30 g, n = 13–19 per treatment arm) (Janvier Laboratories, Le Genest-Saint-Isle, France) were group housed prior to surgery (four animals per cage) and single housed after surgery under standard light-dark conditions (12 h/12 h, lights on 06:00–18:00) with food and tap water available ad libitum. C57BL/6JRj mice were used as they are well suited for neurophysiological cortical network investigations using EEG techniques (Schuelert et al., 2018). […]

satellite PK for NOR = assay type: in vivo; conditions: brain, rat, 210 min postdose
Source text: Based on our previous work with the mGlu1 PAM 4,[6]−[9],[14]−[19] we first evaluated the ability of 19d to reverse MK-801 disruptions of novel object recognition (NOR) in rats (Figure 6).

brain homogenate binding = assay type: in vitro ADME, mouse; conditions: fraction unbound
Adenosine A1 = target: T1, Adenosine A1 (Homo sapiens, UniProt P30542); assay: Eurofins radioligand binding panel; conditions: antagonist radioligand
T1 construct: Eurofins
T1 sequence (P30542 whole entry): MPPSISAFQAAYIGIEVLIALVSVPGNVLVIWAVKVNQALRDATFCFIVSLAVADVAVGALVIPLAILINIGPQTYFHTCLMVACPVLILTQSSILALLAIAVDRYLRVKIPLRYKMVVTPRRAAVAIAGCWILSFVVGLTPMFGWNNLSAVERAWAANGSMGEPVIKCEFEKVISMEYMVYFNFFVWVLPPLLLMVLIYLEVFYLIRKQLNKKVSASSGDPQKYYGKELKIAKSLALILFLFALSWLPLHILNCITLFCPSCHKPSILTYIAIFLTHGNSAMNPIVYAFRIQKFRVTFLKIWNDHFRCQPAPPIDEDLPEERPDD
Source text: (§2) Table S1. Eurofins Lead Profiling Screen Data
(§3) This is a radioligand binding panel of 80 targets including GPCRs, ion channels, transporters and nuclear hormones. Biochemical assay results are presented as the percent inhibition of specific […]
Results showing an inhibition or stimulation higher than 50% are considered to represent significant effect and are highlighted […]
Target / Protein Species % Inhibition at 10

PDGF = assay: Eurofins radioligand binding panel; design: species or system mouse; conditions: agonist radioligand
Source text: as §2, §3
(§4) Results showing an inhibition or stimulation higher than 50% are considered to represent significant effect and are highlighted

sst (non-selective) = assay: Eurofins radioligand binding panel; design: species or system mouse; conditions: agonist radioligand
Source text: as §2, §3, §4

plasma protein binding = assay type: in vitro ADME
Method: as §1

rats = assay: adverse events in rats; assay type: in vivo, rat; conditions: much higher exposures than in dog

Cn1nc(-c2ccnn2C)cc1CNC(=O)c1cc(-c2ccco2)ccc1Cl [Compound 19d, 2-Chloro-N-((1,2′-dimethyl-1H,2’H-[3,3′-bipyrazol]-5-yl)methyl)-5-(furan-2-yl)benzamide]
human fuplasma [1]: 0.03 | 3A4 mechanism-based inhibition (3A4): no 3A4 mechanism-based inhibition | CLhep, rat [2]: 39 mL/min/kg and 39.3 mL/min/kg | rat fuplasma [3]: 0.041 | concentration at 60 min ([4]; 0.8 mg/kg s.c.): 187 nM | concentration at 60 min ([4]; 4 mg/kg s.c.): 1210 nM | concentration at 60 min ([4]; 10 mg/kg s.c.): 2490 nM | concentration at 210 min (satellite PK for NOR; 10 mg/kg PO, read-out: free brain concentration): 73 nM | Kp at 3.5 h (satellite PK for NOR; PO): 0.34 | fu (brain), mouse (brain homogenate binding): 0.081 | inhibition at 10 µM (Adenosine A1): 8% | % Inhibition at 10 µM (PDGF): -2% | % Inhibition at 10 µM (sst (non-selective)): -12% | fraction unbound at 4 h, 5 μM (plasma protein binding; cynomolgus monkey, pH 7.4, read-out: fu (plasma), cyno): 0.025 | fraction unbound at 4 h, 5 μM (plasma protein binding; dog, pH 7.4, read-out: fu (plasma), dog): 0.039 | fraction unbound at 4 h, 5 μM (plasma protein binding; mouse, pH 7.4, read-out: fu (plasma), mouse): 0.056 | adverse events (AEs) in rats (rats): no AEs
